Data published in publication PMC10531055, “Molecular Mechanism of Mutational Disruption of DCLK1 Autoinhibition Provides a Rationale for Inhibitor Screening” (International Journal of Molecular Sciences, 2023).

Target: T1, DCLK1 (Doublecortin-like kinase 1) (Homo sapiens, UniProt O15075)
T1 construct: kinase domain (KD)
T1 sequence (O15075 390-647 limits assumed): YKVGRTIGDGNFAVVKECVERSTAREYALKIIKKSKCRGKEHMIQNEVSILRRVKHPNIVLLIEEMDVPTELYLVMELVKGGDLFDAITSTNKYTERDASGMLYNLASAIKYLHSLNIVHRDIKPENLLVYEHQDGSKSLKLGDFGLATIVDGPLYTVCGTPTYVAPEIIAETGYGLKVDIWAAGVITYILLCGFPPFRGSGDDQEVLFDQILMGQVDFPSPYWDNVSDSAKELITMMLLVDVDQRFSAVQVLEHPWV
Assay: SPR (Biacore X-100, kinase domain immobilized on CM5 chip)
Format: binding

Kd: 1920 nM
SMILES: CCN1CCN(Cc2ccc(Nc3ncc(F)c(-c4cc(F)c5nc(C)n(C(C)C)c5c4)n3)nc2)CC1 [6ZV, Abemaciclib]
